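Interpolation was linear, between the two tested concentrations surrounding the appropriate level; five concentrations were tested over 48 hours in 96-well plates. TGI denotes the concentration required for complete inhibition of growth.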
How the values were obtained:
Assay in all cases: NCI tumour cell line growth inhibition, 48 h
OVCAR-3 ovarian = tested on: OVCAR-3 ovarian
MDA-MB-435 = tested on: MDA-MB-435
UACC-62 melanoma = tested on: UACC-62 melanoma
786-0 renal = tested on: 786-0 renal
SW-620 colon = tested on: SW-620 colon
HT29 colon = tested on: HT29 colon
NCI-H23 lung = tested on: NCI-H23 lung
UO-31 renal = tested on: UO-31 renal
DU-145 prostate = tested on: DU-145 prostate
MCF7 breast = tested on: MCF7 breast
MDA-N = tested on: MDA-N
A549 NSCLC = tested on: A549 NSCLC
RXF 393 renal = tested on: RXF 393 renal
HL-60(TB) leukemia = tested on: HL-60(TB) leukemia
SF-268 CNS = tested on: SF-268 CNS
UACC-257 melanoma = tested on: UACC-257 melanoma
M14 melanoma = tested on: M14 melanoma
TK-10 renal = tested on: TK-10 renal
MOLT-4 leukemia = tested on: MOLT-4 leukemia
HOP-62 NSCLC = tested on: HOP-62 NSCLC
OVCAR-8 ovarian = tested on: OVCAR-8 ovarian
SNB-75 CNS = tested on: SNB-75 CNS
NCI-H460 lung = tested on: NCI-H460 lung
ACHN renal = tested on: ACHN renal
CAKI-1 renal = tested on: CAKI-1 renal
HCC-2998 colon = tested on: HCC-2998 colon
SN12C renal = tested on: SN12C renal
MALME-3M melanoma = tested on: MALME-3M melanoma
K-562 leukemia = tested on: K-562 leukemia
HS 578T breast = tested on: HS 578T breast
T-47D breast = tested on: T-47D breast
PC-3 prostate = tested on: PC-3 prostate
SK-MEL-5 melanoma = tested on: SK-MEL-5 melanoma
SK-MEL-28 melanoma = tested on: SK-MEL-28 melanoma
NCI/ADR-RES ovarian = tested on: NCI/ADR-RES ovarian
EKVX NSCLC = tested on: EKVX NSCLC
U251 CNS = tested on: U251 CNS
OVCAR-5 ovarian = tested on: OVCAR-5 ovarian
BT-549 breast = tested on: BT-549 breast
SR leukemia = tested on: SR leukemia
OVCAR-4 ovarian = tested on: OVCAR-4 ovarian
HOP-92 NSCLC = tested on: HOP-92 NSCLC
HCT-116 colon = tested on: HCT-116 colon
KM12 colon = tested on: KM12 colon
SF-539 CNS = tested on: SF-539 CNS
SK-OV-3 ovarian = tested on: SK-OV-3 ovarian
CCRF-CEM leukemia = tested on: CCRF-CEM leukemia
MDA-MB-231 breast = tested on: MDA-MB-231 breast
SNB-19 CNS = tested on: SNB-19 CNS
A498 renal = tested on: A498 renal
RPMI-8226 leukemia = tested on: RPMI-8226 leukemia
HCT-15 colon = tested on: HCT-15 colon
SF-295 CNS = tested on: SF-295 CNS
NCI-H226 lung = tested on: NCI-H226 lung
LOX IMVI melanoma = tested on: LOX IMVI melanoma
COLO 205 colon = tested on: COLO 205 colon
IGROV1 ovarian = tested on: IGROV1 ovarian
NCI-H522 lung = tested on: NCI-H522 lung
SK-MEL-2 melanoma = tested on: SK-MEL-2 melanoma

C=CN1CCN(c2ccccc2)P1(=O)Oc1ccccc1 (centres undefined)
TGI (OVCAR-3 ovarian): > 100 µM
TGI (MDA-MB-435): > 100 µM
TGI (UACC-62 melanoma): > 100 µM
TGI (786-0 renal): > 100 µM
TGI (SW-620 colon): > 100 µM
TGI (HT29 colon): > 100 µM
TGI (NCI-H23 lung): > 100 µM
TGI (UO-31 renal): 92.8 µM
TGI (DU-145 prostate): > 100 µM
TGI (MCF7 breast): > 100 µM
TGI (MDA-N): > 100 µM
TGI (A549 NSCLC): > 100 µM
TGI (RXF 393 renal): > 100 µM
TGI (HL-60(TB) leukemia): > 100 µM
TGI (SF-268 CNS): > 100 µM
TGI (UACC-257 melanoma): > 100 µM
TGI (M14 melanoma): > 100 µM
TGI (TK-10 renal): > 100 µM
TGI (MOLT-4 leukemia): > 100 µM
TGI (HOP-62 NSCLC): > 100 µM
TGI (OVCAR-8 ovarian): > 100 µM
TGI (SNB-75 CNS): > 100 µM
TGI (NCI-H460 lung): > 100 µM
TGI (ACHN renal): > 100 µM
TGI (CAKI-1 renal): > 100 µM
TGI (HCC-2998 colon): > 100 µM
TGI (SN12C renal): > 100 µM
TGI (MALME-3M melanoma): > 100 µM
TGI (K-562 leukemia): > 100 µM
TGI (HS 578T breast): > 100 µM
TGI (T-47D breast): > 100 µM
TGI (PC-3 prostate): > 100 µM
TGI (SK-MEL-5 melanoma): > 100 µM
TGI (SK-MEL-28 melanoma): > 100 µM
TGI (NCI/ADR-RES ovarian): > 100 µM
TGI (EKVX NSCLC): > 100 µM
TGI (U251 CNS): > 100 µM
TGI (OVCAR-5 ovarian): > 100 µM
TGI (BT-549 breast): > 100 µM
TGI (SR leukemia): > 100 µM
TGI (OVCAR-4 ovarian): > 100 µM
TGI (HOP-92 NSCLC): > 100 µM
TGI (HCT-116 colon): > 100 µM
TGI (KM12 colon): > 100 µM
TGI (SF-539 CNS): > 100 µM
TGI (SK-OV-3 ovarian): > 100 µM
TGI (CCRF-CEM leukemia): > 100 µM
TGI (MDA-MB-231 breast): > 100 µM
TGI (SNB-19 CNS): > 100 µM
TGI (A498 renal): > 100 µM
TGI (RPMI-8226 leukemia): > 100 µM
TGI (HCT-15 colon): > 100 µM
TGI (SF-295 CNS): > 100 µM
TGI (NCI-H226 lung): > 100 µM
TGI (LOX IMVI melanoma): > 100 µM
TGI (COLO 205 colon): > 100 µM
TGI (IGROV1 ovarian): > 100 µM
TGI (NCI-H522 lung): > 100 µM
TGI (SK-MEL-2 melanoma): > 100 µM

Source: PubChem BioAssay (NCI)
